Laboratory results from patent US10894777B2, “TG2 inhibitor piperazine compounds and uses thereof” (UNIVERSITY OF OTTAWA, priority 2016, dated 2021).
Where two headings read alike, the source gives them in different places.

What was measured:
NFκB = NFκB subcellular distribution (cell fractionation, immunoblot), ECS cells; assay type: cell-based, human; conditions: 8 day spheroids, 20 μM, 48 h
Experimental: In (A), it is shown that ECS cells have reduced NFκB-p65 levels. SCC-13 cells (40,000) were grown in spheroid medium in attached (monolayer) and non-attached (spheroid, ECS cells) conditions. Lysates were prepared after 10 d in culture for electrophoresis and detection of indicated epitopes. In (B). […] and SCC13-TG2-shRNA2 cells were grown in spheroid medium as monolayers. After 10 d in culture, lysates were collected for detection of TG2 and NFκB-p65. In (C), SCC-13 cells were electroporated with control-, NFκB-p65- or TG2-siRNA and then cultured as monolayers in spheroid medium. After 72 h extracts were prepared to assay TG2, NFκB-p65 and EMT markers. In (D), SCC-13 cells were electroporated with empty vector Control- or TG2-siRNA and plated in monolayer culture. The following day cells were fixed, permeabilized and incubated with antibodies specific for the indicated epitopes. […] In (E), an equal number of cell equivalents of total (T), nuclear (N), and cytosolic (C) extract, prepared from SCC13-Control-shRNA and SCC13-TG2-shRNA2 (TG2 knockdown) cells, was electrophoresed for immunoblot detection of NFκB, histone 3 (nuclear marker) and β-actin (cytoplasmic marker). […] In (F), total (T), nuclear (N), and cytosolic (C) extract was prepared from 8 day spheroids (ECS cells) treated with 0 or 20 μM NC9 for 48 h. […]

U251 cells = assay: Agarose colony formation assay, U251 cells; assay type: cell-based, human; conditions: 10 μM, 2 weeks
Experimental: Agarose colony formation assay. Agarose colony formation assay was conducted as described (Horman, S. R. et al., J. Biomol. Screen 18(10):1298-308, 2013; Zhang, K. et al., Tumour Biol. 35(3):2537-48, 2014) using 6-well plates and 5,000 cells in each well. 10 μM NC9 or DMSO was added to every layer at the start of the experiments. 2 mL liquid MEM containing 10 μM NC9 or DMSO was used to cover the agarose and it was changed 3 times a week. Colony growth was monitored every day and at the end of 10-15 days, the colonies were fixed with 4% paraformaldehyde, stained with 0.005% crystal violet, washed with PBS twice and 40 random pictures were taken from each treatment group. A person blinded for the treatments measured the area of the colonies using ImageJ program and the volumes were calculated from the area data under the assumption that the colonies are perfect spheres. The volumes were used to compare the effect of NC9 on colony growth.

TG2 = molecular target: T1, TG2 (Homo sapiens, UniProt P21980); assay: Kinetic inactivation of purified recombinant human TG2, continuous spectrophotometric activity assay (Examples 3, 10); assay type: biochemical; design: made in house
T1 sequence (P21980 1-687): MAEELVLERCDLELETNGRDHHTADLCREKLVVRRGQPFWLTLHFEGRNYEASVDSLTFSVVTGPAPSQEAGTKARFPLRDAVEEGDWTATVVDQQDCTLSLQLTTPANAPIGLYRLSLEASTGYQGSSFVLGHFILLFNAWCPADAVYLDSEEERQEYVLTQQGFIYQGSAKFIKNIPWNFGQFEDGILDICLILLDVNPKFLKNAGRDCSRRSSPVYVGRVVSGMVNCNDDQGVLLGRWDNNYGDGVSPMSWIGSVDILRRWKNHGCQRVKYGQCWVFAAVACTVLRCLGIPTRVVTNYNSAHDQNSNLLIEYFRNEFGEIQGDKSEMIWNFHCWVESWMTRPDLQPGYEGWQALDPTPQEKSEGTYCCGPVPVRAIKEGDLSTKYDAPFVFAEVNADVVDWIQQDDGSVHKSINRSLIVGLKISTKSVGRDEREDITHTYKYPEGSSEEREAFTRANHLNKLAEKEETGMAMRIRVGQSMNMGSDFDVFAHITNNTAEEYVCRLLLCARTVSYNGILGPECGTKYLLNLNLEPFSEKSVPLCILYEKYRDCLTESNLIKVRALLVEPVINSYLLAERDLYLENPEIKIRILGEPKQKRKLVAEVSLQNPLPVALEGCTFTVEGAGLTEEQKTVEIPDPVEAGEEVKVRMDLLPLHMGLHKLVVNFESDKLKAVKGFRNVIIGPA
Experimental: Kinetic studies were carried out in vitro, using purified recombinant human TG2 (Roy, I. et al., Protein Expr. Purif. 87: 41-46, 2013) and a direct, continuous spectrophotometric activity assay (Leblanc, A. et al., Biochemistry 40: 8335-8342, 2001).
Kinetics. Kinetic runs were performed at 25° C. in 100 mM MOPS buffer (pH 7.0) containing 3 mM CaCl2 and 50 μM EDTA. […] Stock solutions of the substrate and inhibitors were prepared in DMF such that the final concentration of this co-solvent was constant at 10% v/v. Reactions were initiated with the addition of enzyme with an activity of approximately 0.05 U/mL. Kinetic evaluation was carried out by the method of Stone and Hofsteenge (Stone, S. R. and Hofsteenge, J., Biochem. J. 230: 497-502, 1985). […] Observed first-order rate constants of inactivation were determined from non-linear regression, to a mono-exponential model. These rate constants were in turn fit to equation 1 by non-linear regression, providing the kinetic parameters
Kinetic parameters were determined as described above.

| kinact (TG2; Table 4) | kinact/KI (TG2; read-out: kinact/KI (?M^−1min^−1), Table 1) | kinact/KI (TG2; read-out: kinact/Ki (μM^−1 min^−1), Table 4, for ^a no saturation observed, efficiency obtained from initial slope) | Compound | cytoplasmic/nuclear distribution of NFκB (NFκB) | colony growth, U251 (U251 cells) |
| --- | --- | --- | --- | --- | --- |
| – | – | – | C=CC(=O)NCCCC[C@H](NC(=O)OCc1ccccc1)C(=O)NCCOCCOCCNS(=O)(=O)c1cccc2c(N(C)C)cccc12 [NC9] | not altered | significantly reduced the growth |
| 0.0116 s⁻¹ | 130000 M⁻¹ min⁻¹ | 165000 M⁻¹ min⁻¹ | C=CC(=O)NCCCC[C@H](NC(=O)OCc1ccccc1)C(=O)N1CCN(C(=O)c2cc3ccc(O)cc3oc2=O)CC1 [VA5, (S)-Benzyl(6-acrylamido-1-(4-(7-hydroxy-2-oxo-2H-chromene-3-carbonyl)piperazin-1-yl)-1-oxohexan-2-yl)carbamate] | – | – |
